Data from patent US20150038527A1, “FUROPYRIDINE DERIVATIVES” (Merck Patent GmbH, priority 2012, published 2015).

Molecular target: T1, SYK (Homo sapiens, UniProt P43405)
T1 construct: 2.5 nM SYK, 400 nM Biotin-Aha-Aha-KEDPDYEWPSAKK and 10 μM ATP
Test: SYK Flash Plate Assay (enzyme assay)
Type: biochemical
Experimental: The kinase assay is performed either as 384-well Flashplate assay (for e.g. Topcount measurement) or as 384-well Image-Flashplate assay (for LEADseeker measurement).
2.5 nM SYK, 400 nM Biotin-Aha-Aha-KEDPDYEWPSAKK and 10 μM ATP (spiked with 0.3 μCi 33P-ATP/well) are incubated in a total volume of 50 μl (60 mM Hepes, 10 mM MgCl2, 1.2 mM Dithiothreitol, 0.02% Brij35, 0.1% BSA, pH 7.5) with or without test compound for 1 hours at 30° C. The reaction is stopped with 25 μl 200 mM EDTA. After 30 Min at 30° C. the liquid is removed and each well washed thrice with 100 μl 0.9% sodium chloride solution. Non-specific reaction is determined in presence of 0.1 μM Staurosporine. Radioactivity is measured with Topcount (when using Flashplates) or with LEADseeker (when using Image-Flashplates) respectively. Results (e.g. IC50-values) are calculated with program tools provided by the IT-department (e.g. Symyx Assay Explorer, Genedata Screener).

Structure (SMILES)	IC50 [µM]
COc1cc(-c2cc3nccc(N4CCNCC4)c3o2)cc(OC)c1OC [Compound A53, 7-piperazin-1-yl-2-(3,4,5-trimethoxy-phenyl)-furo[3,2-b]pyridine]	3 to 50
COc1cc(OCCN)ccc1-c1cc2nccc(-c3cccc(C(=O)NCCO)c3)c2o1 [Compound A29, 3-{2-[4-(2-amino-ethoxy)-2-methoxy-phenyl]-furo[3,2-b]pyridin-7-yl}-N-(2-hydroxy-ethyl)-benzamide]	3 to 50
COc1cc(-c2cc3nccc(-c4ccc(N(C)C)cc4)c3o2)cc(OC)c1OC [Compound A65, dimethyl-{4-[2-(3,4,5-trimethoxy-phenyl)-furo[3,2-b]pyridin-7-yl]-phenyl}-amine]	3 to 50
COc1cc(-c2cc3nccc(-c4cccc(C(=O)N[C@@H]5CCCC[C@@H]5NC(C)=O)c4)c3o2)cc(OC)c1OC [Compound A34, N-((1R,2S)-2-acetylamino-cyclohexyl)-3-[2-(3,4,5-trimethoxy-phenyl)furo[3,2-b]pyridin-7-yl]-benzamide]	3 to 50
COc1cc(-c2cc3nccc(-c4cccc(C(=O)NCC(C)(C)N)c4)c3o2)cc(OC)c1OC [Compound A32, N-(2-amino-2-methyl-propyl)-3-[2-(3,4,5-trimethoxy-phenyl)-furo[3,2-b]pyridin-7-yl]-benzamide]	3 to 50
COc1cc(-c2cc3nccc(-c4cccc(C(=O)NC[C@@H](O)CO)c4)c3o2)cc(OC)c1OC [Compound A17, N—((R)-2,3-dihydroxy-propyl)-3-[2-(3,4,5-trimethoxy-phenyl)-furo[3,2-b]pyridin-7-yl]-benzamide]	3 to 50
COc1cc(-c2cc3nccc(-c4ccc5[nH]c(=O)n(CCN)c5c4)c3o2)cc(OC)c1OC [Compound A6, 1-(2-amino-ethyl)-6-[2-(3,4,5-trimethoxy-phenyl)-furo[3,2-b]pyridin-7-yl]-1,3-dihydro-benzoimidazol-2-one]	3 to 50
COc1cc(-c2cc3nccc(-c4cccc(C(=O)NCC(O)CO)c4)c3o2)cc(OC)c1OC (centres unmarked) [Compound A20, N-(2,3-dihydroxy-propyl)-3-[2-(3,4,5-trimethoxy-phenyl)-furo[3,2-b]pyridin-7-yl]-benzamide]	3 to 50
COc1cc(-c2cc3nccc(NC(=O)NC4CCCCC4N)c3o2)cc(OC)c1OC (centres unmarked) [Compound A75, 1-(2-amino-cyclohexyl)-3-[2-(3,4,5-trimethoxy-phenyl)-furo[3,2-b]pyridin-7-yl]-urea]	3 to 50
CCc1ccccc1-c1cc2nccc(-c3cccc(C(=O)N[C@@H]4CCCC[C@@H]4N)c3)c2o1 [Compound A49, N-((1R,2S)-2-amino-cyclohexyl)-3-[2-(2-ethyl-phenyl)-furo[3,2-b]pyridin-7-yl]-benzamide]	3 to 50
CCc1ccc(OC)c(-c2cc3nccc(-c4ccc5[nH]cnc5c4)c3o2)c1 [Compound A41, 7-(1H-benzoimidazol-5-yl)-2-(5-ethyl-2-methoxy-phenyl)-furo[3,2-b]pyridine]	0.3 to 3
COc1cc(-c2cc3nccc(-c4cccc(C(=O)N[C@@H]5CCC[C@H]5O)c4)c3o2)cc(OC)c1OC [Compound A12, N-((1R,2R)-2-hydroxy-cyclopentyl)-3-[2-(3,4,5-trimethoxy-phenyl)-furo[3,2-b]pyridin-7-yl]-benzamide]	0.3 to 3
COc1ccc(C(=O)O)cc1-c1cc2nccc(-c3c(OC)cccc3OC)c2o1 [Compound A66, 3-[7-(2,6-dimethoxy-phenyl)-furo[3,2-b]pyridin-2-yl]-4-methoxy-benzoic acid]	0.3 to 3
CCc1ccc(OC)cc1-c1cc2nccc(-c3ccc4[nH]cnc4c3)c2o1 [Compound A36, 7-(1H-benzoimidazol-5-yl)-2-(2-ethyl-5-methoxy-phenyl)-furo[3,2-b]pyridine]	3 to 50
COc1ccc(CNCCN)cc1-c1ccnc2cc(-c3cc(OC)c(OC)c(OC)c3)oc12 [Compound A4, N1-{4-methoxy-3-[2-(3,4,5-trimethoxy-phenyl)-furo[3,2-b]pyridin-7-yl]-benzyl}-ethane-1,2-diamine]	0.3 to 3

Now from value to compound:

IC50 [µM]	Structure (SMILES)
0.3 to 3	COc1cc(-c2cc3nccc(-c4ccnc(NC[C@@H]5CCCNC5)c4)c3o2)cc(OC)c1OC [Compound A7, (R)-1-piperidin-3-ylmethyl-{4-[2-(3,4,5-trimethoxy-phenyl)-furo[3,2-b]pyridin-7-yl]-pyridin-2-yl}-amine]
0.3 to 3	COc1ccc(S(N)(=O)=O)cc1-c1cc2nccc(-c3c(OC)cccc3OC)c2o1 [Compound A78, 3-[7-(2,6-dimethoxy-phenyl)-furo[3,2-b]pyridin-2-yl]-4-methoxybenzenesulfonamide]
0.3 to 3	COc1ccc(C(N)=O)cc1-c1cc2nccc(-c3cc4[nH]cnc4cc3OC)c2o1 [Compound A89, 4-Methoxy-3-[7-(6-methoxy-3H-benzoimidazol-5-yl)-furo[3,2-b]pyridin-2-yl]-benzamide]
0.3 to 3	Cc1cc(OCCN)ccc1-c1cc2nccc(-c3cccc(C(=O)N[C@@H]4CCCC[C@@H]4N)c3)c2o1 [Compound A52, N-((1R,2S)-2-amino-cyclohexyl)-3-{2-[4-(2-amino-ethoxy)-2-methyl-phenyl]-furo[3,2-b]pyridin-7-yl}-benzamide]
0.3 to 3	COc1cc(-c2cc3nccc(-c4cc(F)cc(C(=O)N[C@@H]5CCCC[C@@H]5N)c4)c3o2)cc(OC)c1OC [Compound A35, N-((1R,2S)-2-amino-cyclohexyl)-3-fluoro-5-[2-(3,4,5-trimethoxy-phenyl)furo[3,2-b]pyridin-7-yl]-benzamide]
0.3 to 3	COCC(O)CNC(=O)c1ccc(OC)c(-c2cc3nccc(-c4c(OC)cccc4OC)c3o2)c1 (centres unmarked) [Compound A69, 3-[7-(2,6-dimethoxy-phenyl)-furo[3,2-b]pyridin-2-yl]-N-(2-hydroxy-3-methoxypropyl)-4-methoxy-benzamide]
0.3 to 3	COc1cc(O)ccc1-c1cc2nccc(-c3ccc4[nH]cnc4c3)c2o1 [Compound A14, 4-[7-(1H-benzoimidazol-5-yl)-furo[3,2-b]pyridin-2-yl]-3-methoxy-phenol]
0.3 to 3	COc1ccc(C(=O)NCC(C)(C)N)cc1-c1cc2nccc(-c3c(OC)cccc3OC)c2o1 [Compound A68, N-(2-amino-2-methyl-propyl)-3-[7-(2,6-dimethoxy-phenyl)-furo[3,2-b]pyridin-2-yl]-4-methoxy-benzamide]
0.3 to 3	COc1cc(-c2cc3nccc(-c4cccc(C(=O)N[C@H]5C[C@H](N)C5)c4)c3o2)cc(OC)c1OC [Compound A24, N-(3-amino-cyclobutyl)-3-[2-(3,4,5-trimethoxy-phenyl)-furo[3,2-b]pyridin-7-yl]-benzamide]
< 0.1	COc1ccc(C(N)=O)cc1-c1cc2nccc(-c3ccnc(NCCN)c3)c2o1 [Compound A80, 3-{7-[2-(2-amino-ethylamino)-pyridin-4-yl]-furo[3,2-b]pyridin-2-yl}-4-methoxybenzamide]
0.3 to 3	COc1cc(-c2cc3nccc(-c4nnc(C)o4)c3o2)cc(OC)c1OC [Compound A99, 7-(5-methyl-[1,3,4]oxadiazol-2-yl)-2-(3,4,5-trimethoxy-phenyl)-furo[3,2-b]pyridine]
0.3 to 3	N[C@H]1CCCC[C@H]1NC(=O)c1cccc(-c2ccnc3cc(-c4cccc5c4OCO5)oc23)c1 [Compound A60, N-((1R,2S)-2-amino-cyclohexyl)-3-(2-benzo[1,3]dioxol-4-yl-furo[3,2-b]pyridin-7-yl)-benzamide]
0.3 to 3	COc1cc(-c2cc3nccc(-c4ccc(O)nc4)c3o2)cc(OC)c1OC [Compound A38, 5-[2-(3,4,5-trimethoxy-phenyl)-furo[3,2-b]pyridin-7-yl]-pyridin-2-ol]
0.3 to 3	COc1ccc(C(=O)NCCCN)cc1-c1ccnc2cc(-c3cc(OC)c(OC)c(OC)c3)oc12 [Compound A58, N-(3-amino-propyl)-4-methoxy-3-[2-(3,4,5-trimethoxy-phenyl)-furo[3,2-b]pyridin-7-yl]-benzamide]
0.3 to 3	CCn1cc(-c2ccnc3cc(-c4cc(C(N)=O)ccc4OC)oc23)cn1 [Compound A63, 3-[7-(1-ethyl-1H-pyrazol-4-yl)-furo[3,2-b]pyridin-2-yl]-4-methoxy-benzamide]
0.3 to 3	COc1cc(-c2cc3nccc(-c4cccc(C(=O)N[C@H]5C[C@@H](N)C5)c4)c3o2)cc(OC)c1OC [Compound A27, N-(3-amino-cyclobutyl)-3-[2-(3,4,5-trimethoxy-phenyl)-furo[3,2-b]pyridin-7-yl]-benzamide]
0.1 to 0.3	COc1ccc(C(N)=O)cc1-c1cc2nccc(-c3ccc(C(=O)NCCN)cc3OC)c2o1 [Compound A95, N-(2-aminoethyl)-4-[2-(5-carbamoyl-2-methoxy-phenyl)furo[3,2-b]pyridin-7-yl]-3-methoxy-benzamide]
< 0.1	COc1ccc(-c2ncon2)cc1-c1cc2nccc(-c3c(OC)cccc3OC)c2o1 [Compound A85, 7-(2,6-dimethoxy-phenyl)-2-(2-methoxy-5-[1,2,4]oxadiazol-3-yl-phenyl)furo[3,2-b]pyridine]
0.3 to 3	COc1cc(-c2cc3nccc(-c4ccc5c(c4)ncn5CCN)c3o2)cc(OC)c1OC [Compound A3, 2-{5-[2-(3,4,5-Trimethoxy-phenyl)-furo[3,2-b]pyridin-7-yl]-benzoimidazol-1-yl}-ethylamine]
0.3 to 3	COc1cc(-c2cc3nccc(-c4cc(C(=O)N[C@@H]5CCCC[C@@H]5N)ccc4F)c3o2)cc(OC)c1OC [Compound A48, N-((1R,2S)-2-mino-cyclohexyl)-4-fluoro-3-[2-(3,4,5-trimethoxy-phenyl)furo[3,2-b]pyridin-7-yl]-benzamide]
